Assay [1] deals with T1, Amine oxidase [flavin-containing] A (Homo sapiens, UniProt P21397).
T1 sequence (P21397 whole entry): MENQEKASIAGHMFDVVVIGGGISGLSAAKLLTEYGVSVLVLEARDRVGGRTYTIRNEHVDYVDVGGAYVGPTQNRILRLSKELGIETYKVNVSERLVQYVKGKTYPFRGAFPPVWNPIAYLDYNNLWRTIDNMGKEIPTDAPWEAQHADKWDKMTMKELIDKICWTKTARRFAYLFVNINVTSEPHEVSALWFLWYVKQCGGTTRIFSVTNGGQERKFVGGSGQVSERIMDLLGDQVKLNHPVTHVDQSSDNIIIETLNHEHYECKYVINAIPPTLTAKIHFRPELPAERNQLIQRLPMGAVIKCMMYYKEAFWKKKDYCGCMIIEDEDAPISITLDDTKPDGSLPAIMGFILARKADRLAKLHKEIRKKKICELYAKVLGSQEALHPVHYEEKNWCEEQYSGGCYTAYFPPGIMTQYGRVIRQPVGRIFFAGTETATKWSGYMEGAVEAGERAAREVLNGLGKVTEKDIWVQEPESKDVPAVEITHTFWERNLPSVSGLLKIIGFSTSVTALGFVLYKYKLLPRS
Description: (§1) Inhibition of MAOA (unknown origin) by Promega MAO-Glo assay

For assay [2], the target named is T2, Lysine-specific histone demethylase 1A (Homo sapiens, UniProt O60341).
Description: (§2) Inhibition of recombinant human LSD1 (172 to 852 residues) using biotin-labelled H3K4me2 (1 to 24 residues) after 1 hr by TR-FRET assay
Assay [3] deals with T2, Lysine-specific histone demethylase 1A. Kind of assay: Inhibition of LSD1 in human MV4-11 cells assessed as increase in CD86 mRNA expression at 500 nM by SYBR Green dye-bsed RT-qPCR analysis relative to control. It counts as cell-based. (In general: In qPCR the cycle at which signal appears reflects the starting amount.)
Assay [4] has as its target Menin/Histone-lysine N-methyltransferase MLL (Homo sapiens, UniProt O00255).
Description: (§3) Inhibition of full length human menin/FAM-tagged MLL1 (unknown origin) protein-protein interaction after 15 mins by fluorescence polarization assay
In assay [5] the target is T3, Amine oxidase [flavin-containing] B (Homo sapiens, UniProt P27338).
T3 sequence (P27338 whole entry): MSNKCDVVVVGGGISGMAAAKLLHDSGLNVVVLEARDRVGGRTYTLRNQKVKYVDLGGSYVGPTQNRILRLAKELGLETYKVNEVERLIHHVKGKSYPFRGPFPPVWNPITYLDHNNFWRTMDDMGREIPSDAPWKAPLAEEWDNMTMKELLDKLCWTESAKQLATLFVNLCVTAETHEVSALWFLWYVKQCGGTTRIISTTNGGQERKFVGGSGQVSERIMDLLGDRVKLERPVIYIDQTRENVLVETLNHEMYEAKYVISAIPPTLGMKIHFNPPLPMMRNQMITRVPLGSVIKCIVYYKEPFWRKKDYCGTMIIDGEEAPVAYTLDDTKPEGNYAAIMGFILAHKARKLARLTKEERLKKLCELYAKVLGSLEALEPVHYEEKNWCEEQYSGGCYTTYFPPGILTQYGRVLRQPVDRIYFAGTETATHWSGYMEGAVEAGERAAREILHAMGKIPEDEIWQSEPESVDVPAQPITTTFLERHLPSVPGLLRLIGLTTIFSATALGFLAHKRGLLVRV
Description: (§4) Inhibition of MAOB (unknown origin) by Promega MAO-Glo assay

For assay [6], the system named is MV4-11. Kind of assay: cells. Particulars: Homo sapiens, MV4-11, 168 h; call rule not given here.
The subject of assay [7] is MV4-11. The assay is described as follows: Antiproliferative activity against human MV4-11 cells after 240 hrs by MTS assay. It counts as functional, cell-based. The conditions noted are these: MV4-11, 240 h. In general terms: Tetrazolium assays rely on reduction of a dye to a coloured formazan, in cell work by metabolically active cells.
Assay [8] addresses Menin/Histone-lysine N-methyltransferase MLL (Homo sapiens, UniProt O00255+Q03164).
Description: as §3
Assay [9] addresses T2, Lysine-specific histone demethylase 1A. Kind of assay: Inhibition of LSD1 in human MV4-11 cells assessed as increase in CD86 mRNA expression at 100 nM by SYBR Green dye-bsed RT-qPCR analysis relative to control. It counts as cell-based.
Assay [10] has as its target T3, Amine oxidase [flavin-containing] B. This is another data set of the same source.
Description: as §4
In assay [11] the target is T2, Lysine-specific histone demethylase 1A. This is another data set of the same source.
Description: as §2
The target of assay [12] is T1, Amine oxidase [flavin-containing] A. The source holds these as a separate data set.
Description: as §1

Some results are limits rather than exact numbers.

Chain of Menin/Histone-lysine N-methyltransferase MLL (Homo sapiens, UniProt O00255) (O00255 whole entry): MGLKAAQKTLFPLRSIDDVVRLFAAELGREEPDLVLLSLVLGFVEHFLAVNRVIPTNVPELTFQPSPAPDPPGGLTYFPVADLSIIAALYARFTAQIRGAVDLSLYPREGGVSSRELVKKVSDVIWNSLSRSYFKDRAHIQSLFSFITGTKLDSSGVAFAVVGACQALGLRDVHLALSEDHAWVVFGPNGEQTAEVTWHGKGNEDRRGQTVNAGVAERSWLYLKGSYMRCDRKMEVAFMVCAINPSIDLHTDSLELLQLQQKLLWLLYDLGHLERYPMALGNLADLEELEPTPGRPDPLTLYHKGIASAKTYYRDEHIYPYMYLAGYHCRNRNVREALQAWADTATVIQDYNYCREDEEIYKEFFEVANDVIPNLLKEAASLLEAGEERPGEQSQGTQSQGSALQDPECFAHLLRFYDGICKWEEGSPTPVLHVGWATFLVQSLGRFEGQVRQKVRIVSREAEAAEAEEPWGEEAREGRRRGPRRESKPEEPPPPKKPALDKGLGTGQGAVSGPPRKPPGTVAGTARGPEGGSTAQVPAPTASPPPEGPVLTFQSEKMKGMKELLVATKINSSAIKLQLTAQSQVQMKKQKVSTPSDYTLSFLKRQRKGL
Chain of Menin/Histone-lysine N-methyltransferase MLL (Homo sapiens, UniProt O00255) (Q03164 1-2718 partner limits assumed): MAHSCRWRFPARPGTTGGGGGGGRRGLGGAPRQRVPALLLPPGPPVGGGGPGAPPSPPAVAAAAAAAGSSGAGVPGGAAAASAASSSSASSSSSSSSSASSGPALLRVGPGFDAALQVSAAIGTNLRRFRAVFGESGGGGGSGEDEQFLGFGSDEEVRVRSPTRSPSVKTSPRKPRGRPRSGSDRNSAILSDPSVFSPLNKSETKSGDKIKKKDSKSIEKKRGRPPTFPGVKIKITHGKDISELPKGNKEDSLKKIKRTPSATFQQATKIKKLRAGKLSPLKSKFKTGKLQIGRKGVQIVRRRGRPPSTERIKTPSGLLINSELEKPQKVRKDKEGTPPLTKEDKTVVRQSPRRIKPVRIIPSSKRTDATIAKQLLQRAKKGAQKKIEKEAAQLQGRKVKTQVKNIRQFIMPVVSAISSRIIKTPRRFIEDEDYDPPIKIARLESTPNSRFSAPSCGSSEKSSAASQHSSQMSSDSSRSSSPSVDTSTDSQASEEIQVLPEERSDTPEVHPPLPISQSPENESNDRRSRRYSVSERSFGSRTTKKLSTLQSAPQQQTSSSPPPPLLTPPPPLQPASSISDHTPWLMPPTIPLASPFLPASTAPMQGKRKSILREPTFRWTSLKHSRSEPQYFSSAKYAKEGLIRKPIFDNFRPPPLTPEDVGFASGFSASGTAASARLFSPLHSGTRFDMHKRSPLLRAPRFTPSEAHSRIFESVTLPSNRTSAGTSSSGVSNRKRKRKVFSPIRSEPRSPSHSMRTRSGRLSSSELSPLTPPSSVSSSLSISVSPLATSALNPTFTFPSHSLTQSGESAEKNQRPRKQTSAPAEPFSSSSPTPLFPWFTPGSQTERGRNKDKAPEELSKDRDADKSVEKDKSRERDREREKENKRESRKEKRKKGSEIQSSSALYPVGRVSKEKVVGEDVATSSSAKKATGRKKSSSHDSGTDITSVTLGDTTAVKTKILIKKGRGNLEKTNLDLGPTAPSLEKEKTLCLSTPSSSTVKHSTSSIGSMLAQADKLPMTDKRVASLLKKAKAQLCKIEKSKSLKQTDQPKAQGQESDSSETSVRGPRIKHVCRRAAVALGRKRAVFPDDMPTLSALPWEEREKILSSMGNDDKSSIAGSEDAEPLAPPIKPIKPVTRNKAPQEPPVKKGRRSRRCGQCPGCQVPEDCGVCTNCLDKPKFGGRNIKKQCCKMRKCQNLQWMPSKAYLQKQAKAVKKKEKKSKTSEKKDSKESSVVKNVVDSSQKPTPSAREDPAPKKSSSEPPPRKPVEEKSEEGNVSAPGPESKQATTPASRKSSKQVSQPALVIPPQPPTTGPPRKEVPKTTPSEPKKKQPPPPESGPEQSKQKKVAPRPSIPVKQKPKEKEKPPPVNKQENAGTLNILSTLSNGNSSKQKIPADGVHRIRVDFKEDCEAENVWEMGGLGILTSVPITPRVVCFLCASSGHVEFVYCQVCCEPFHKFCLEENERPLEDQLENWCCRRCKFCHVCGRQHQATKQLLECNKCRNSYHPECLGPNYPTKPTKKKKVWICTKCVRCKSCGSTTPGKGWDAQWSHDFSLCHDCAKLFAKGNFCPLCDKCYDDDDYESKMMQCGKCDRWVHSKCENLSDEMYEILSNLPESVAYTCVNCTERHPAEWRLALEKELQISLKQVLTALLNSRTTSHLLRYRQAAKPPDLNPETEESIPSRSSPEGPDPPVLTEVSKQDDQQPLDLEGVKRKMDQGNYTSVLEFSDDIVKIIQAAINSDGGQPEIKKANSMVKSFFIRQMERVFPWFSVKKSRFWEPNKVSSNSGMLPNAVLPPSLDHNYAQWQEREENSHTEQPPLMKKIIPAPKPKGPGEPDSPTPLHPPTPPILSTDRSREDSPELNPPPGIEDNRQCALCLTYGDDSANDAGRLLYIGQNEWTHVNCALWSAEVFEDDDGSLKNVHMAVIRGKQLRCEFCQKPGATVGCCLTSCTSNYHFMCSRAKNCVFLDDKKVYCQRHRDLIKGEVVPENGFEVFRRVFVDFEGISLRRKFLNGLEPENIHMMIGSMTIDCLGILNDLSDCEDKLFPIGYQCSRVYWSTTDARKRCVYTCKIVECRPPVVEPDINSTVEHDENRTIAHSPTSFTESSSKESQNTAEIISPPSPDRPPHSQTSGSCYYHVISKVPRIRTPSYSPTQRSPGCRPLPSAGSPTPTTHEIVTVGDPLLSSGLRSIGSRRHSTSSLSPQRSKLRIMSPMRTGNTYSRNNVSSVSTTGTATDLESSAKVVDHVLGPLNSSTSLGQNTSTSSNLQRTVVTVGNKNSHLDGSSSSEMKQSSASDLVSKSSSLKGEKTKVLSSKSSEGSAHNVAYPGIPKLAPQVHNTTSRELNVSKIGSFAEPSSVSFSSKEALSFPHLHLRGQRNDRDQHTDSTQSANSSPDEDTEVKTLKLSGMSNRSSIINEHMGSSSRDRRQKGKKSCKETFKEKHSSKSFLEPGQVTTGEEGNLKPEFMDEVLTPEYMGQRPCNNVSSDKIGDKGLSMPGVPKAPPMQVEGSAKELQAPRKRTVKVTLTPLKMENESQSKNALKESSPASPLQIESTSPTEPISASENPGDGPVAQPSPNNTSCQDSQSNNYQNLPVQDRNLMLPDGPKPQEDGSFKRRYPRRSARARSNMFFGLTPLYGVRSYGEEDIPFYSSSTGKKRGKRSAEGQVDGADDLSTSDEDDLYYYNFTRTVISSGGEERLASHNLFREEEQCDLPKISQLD
Chain of Menin/Histone-lysine N-methyltransferase MLL (Homo sapiens, UniProt O00255) (Q03164 2719-3969 partner limits assumed): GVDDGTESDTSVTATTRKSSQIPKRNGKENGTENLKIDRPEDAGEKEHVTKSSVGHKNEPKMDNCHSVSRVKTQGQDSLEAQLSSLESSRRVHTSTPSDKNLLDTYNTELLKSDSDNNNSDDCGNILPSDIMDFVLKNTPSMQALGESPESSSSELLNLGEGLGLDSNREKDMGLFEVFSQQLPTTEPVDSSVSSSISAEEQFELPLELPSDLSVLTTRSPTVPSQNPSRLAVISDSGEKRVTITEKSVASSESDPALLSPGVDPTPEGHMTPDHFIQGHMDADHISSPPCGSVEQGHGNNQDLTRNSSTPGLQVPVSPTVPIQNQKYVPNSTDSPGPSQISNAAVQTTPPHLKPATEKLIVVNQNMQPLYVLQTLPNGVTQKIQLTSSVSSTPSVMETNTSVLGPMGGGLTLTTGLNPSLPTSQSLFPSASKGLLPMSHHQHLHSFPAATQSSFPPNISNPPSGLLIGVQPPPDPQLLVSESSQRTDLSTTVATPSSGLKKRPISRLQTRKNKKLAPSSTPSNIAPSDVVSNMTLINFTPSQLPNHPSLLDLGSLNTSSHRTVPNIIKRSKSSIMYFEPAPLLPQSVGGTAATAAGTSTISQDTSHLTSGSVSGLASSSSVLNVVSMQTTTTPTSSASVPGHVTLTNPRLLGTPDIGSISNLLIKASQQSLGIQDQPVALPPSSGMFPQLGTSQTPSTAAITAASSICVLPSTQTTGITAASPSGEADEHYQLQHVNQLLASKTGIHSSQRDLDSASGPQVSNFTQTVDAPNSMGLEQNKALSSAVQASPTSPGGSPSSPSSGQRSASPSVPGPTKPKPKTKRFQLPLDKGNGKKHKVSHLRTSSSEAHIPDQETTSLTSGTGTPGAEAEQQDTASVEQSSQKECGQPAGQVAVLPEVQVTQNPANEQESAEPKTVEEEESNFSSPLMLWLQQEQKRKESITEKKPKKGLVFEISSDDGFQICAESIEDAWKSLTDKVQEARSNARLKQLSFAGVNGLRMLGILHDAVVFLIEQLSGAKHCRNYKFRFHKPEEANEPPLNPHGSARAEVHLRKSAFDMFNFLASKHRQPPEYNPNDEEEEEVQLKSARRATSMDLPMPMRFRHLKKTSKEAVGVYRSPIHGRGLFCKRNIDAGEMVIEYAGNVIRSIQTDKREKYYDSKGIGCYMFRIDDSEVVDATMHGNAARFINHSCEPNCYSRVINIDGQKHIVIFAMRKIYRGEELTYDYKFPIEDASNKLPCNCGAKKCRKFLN
Chain of Menin/Histone-lysine N-methyltransferase MLL (Homo sapiens, UniProt O00255+Q03164) (O00255 whole entry): as the sequence (O00255 whole entry) above
Chain of Menin/Histone-lysine N-methyltransferase MLL (Homo sapiens, UniProt O00255+Q03164) (Q03164 1-2718 limits assumed): as the sequence (Q03164 1-2718 partner limits assumed) above
Chain of Menin/Histone-lysine N-methyltransferase MLL (Homo sapiens, UniProt O00255+Q03164) (Q03164 2719-3969 limits assumed): as the sequence (Q03164 2719-3969 partner limits assumed) above

Consider `FC(F)(F)Cc1cc2c(N[C@H]3CC[C@H](N[C@@H]4C[C@H]4c4ccccc4)CC3)ncnc2s1`, for which the IC50 is 65.9 µM in assay [1]; 0.303 µM in assay [2]; 36.9 µM in assay [4]; over 100 µM in [5]; 0.49 µM in the assay on MV4-11 [6]. In addition, the fold change (FC) in assay [3] worked out at 16.4.

With `FC(F)(F)Cc1cc2c(N3CCC(CN[C@@H]4C[C@H]4c4ccccc4)CC3)ncnc2s1`, the IC50 in assay [1] is 2.23 µM; in assay [2] it was 0.0844 µM; in assay [4] it was 17.3 µM; in assay [5], 1.16 µM; in the assay on MV4-11 [6] it was 11.4 µM.

Turning to `FC(F)(F)Cc1cc2c(N[C@H]3CC[C@H](CN[C@@H]4C[C@H]4c4ccccc4)CC3)ncnc2s1`, the IC50 was 4.1 µM in assay [1]; 0.109 µM in assay [2]; over 100 µM in assay [4]; 4.81 µM in assay [5]; 2.96 µM with MV4-11 [6].

For `FC(F)(F)Cc1cc2c(N3CCC(N[C@@H]4C[C@H]4c4ccccc4)CC3)ncnc2s1`, the IC50 in [1] was 12.5 µM; in assay [2] it was 0.211 µM; in assay [4] it was 10.2 µM; in assay [5], 40.3 µM; in the assay on MV4-11 [6] it was 0.29 µM. Further, the fold change (FC) in assay [3] was determined as 22.3.

For `FC(F)(F)Cc1cc2c(N3CCC(N[C@H]4C[C@@H]4c4ccccc4)CC3)ncnc2s1`, the IC50 in assay [1] stood at 8.27 µM; in assay [2] it was 0.692 µM; in [4], 34.5 µM; in assay [5], 36.7 µM; with MV4-11 [6], 7.31 µM.

`Fc1ccc([C@@H]2C[C@H]2NC2CCN(c3ncnc4sc(CC(F)(F)F)cc34)CC2)cc1F`: the IC50 in assay [1] was 56.4 µM; in assay [2], 0.241 µM; in assay [4], over 100 µM; in [5] it was 95.6 µM; with MV4-11 [6] it was over 100 µM.

As to `Fc1ccc([C@@H]2C[C@H]2NC[C@H]2CC[C@H](Nc3ncnc4sc(CC(F)(F)F)cc34)CC2)cc1F`, the IC50 is 21 µM in assay [1]; 0.36 µM in [2]; over 100 µM in assay [4]; 20.4 µM in [5]; 6.96 µM with MV4-11 [6].

Consider `O=C(O)c1ccc(CN2CCC(CN[C@@H]3C[C@H]3c3ccccc3)CC2)cc1` [GSK2879552], for which the IC50 in assay [1] is over 100 µM; in the assay with MV4-11 [7], 1.16 µM; in assay [2] it was 1.2 µM; in [5], over 100 µM; in assay [8] it was “Not Active”.

On to `Fc1ccc([C@@H]2C[C@H]2N[C@H]2CC[C@@H](Nc3ncnc4sc(CC(F)(F)F)cc34)CC2)cc1F`, for which the IC50 in assay [1] came to 40.9 µM; in [2] it was 0.0661 µM; in [4], 2.13 µM; in [5] it was 1.21 µM; with MV4-11 [6], 0.51 µM. Moreover, the fold change (FC) in [9] was determined as 7.59.

`Fc1ccc([C@@H]2C[C@H]2N[C@H]2CC[C@H](Nc3ncnc4sc(CC(F)(F)F)cc34)CC2)cc1F`: the IC50 in [1] was 47.5 µM; in [2], 0.146 µM; in assay [4] it was over 100 µM; in assay [5] it was 71.6 µM; in the assay with MV4-11 [6] it was 2.01 µM.

As for `FC(F)(F)Cc1cc2c(N[C@H]3CC[C@@H](N[C@H]4C[C@@H]4c4ccccc4)CC3)ncnc2s1`, the 50% inhibitory concentration (IC50) in [1] was over 100 µM; in assay [2], 0.242 µM; in assay [4], 24.7 µM; in [5] it was 75.6 µM; in the assay on MV4-11 [6] it was 3.42 µM.

For the molecule `Fc1ccc([C@@H]2C[C@H]2NCC2CCN(c3ncnc4sc(CC(F)(F)F)cc34)CC2)cc1F`, the IC50 in [1] is 20.8 µM; in [2], 0.252 µM; in [4], 30.9 µM; in [5] it was 49.5 µM; in the assay with MV4-11 [6], over 100 µM.

In the case of `CC1(C)CN=C(N2CCN(c3ncnc4sc(CC(F)(F)F)cc34)CC2)S1`, the IC50 entry in [10] was “Not Active”; in assay [11], “Not Active”; in assay [12], “Not Active”; with MV4-11 [6], 2.6 µM.

As for `FC(F)(F)Cc1cc2c(N[C@H]3CC[C@H](CN[C@H]4C[C@@H]4c4ccccc4)CC3)ncnc2s1`, the IC50 in assay [1] is 8.57 µM; in [2] it was 0.184 µM; in assay [4], over 100 µM; in assay [5] it was 22 µM; in the assay with MV4-11 [6] it was 5.55 µM.

For `FC(F)(F)Cc1cc2c(N[C@H]3CC[C@H](N[C@H]4C[C@@H]4c4ccccc4)CC3)ncnc2s1`, the IC50 in assay [1] was 12.9 µM; in assay [2], 0.187 µM; in [4], over 100 µM; in assay [5], 28.8 µM; in the assay with MV4-11 [6], 3.6 µM.

`FC(F)(F)Cc1cc2c(N[C@H]3CC[C@@H](N[C@@H]4C[C@H]4c4ccccc4)CC3)ncnc2s1`: the IC50 amounted to 4.55 µM in assay [1]; 0.124 µM in assay [2]; 50.7 µM in [4]; 6.05 µM in [5]; 2.49 µM with MV4-11 [6].

Turning to `FC(F)(F)Cc1cc2c(N3CCC(CN[C@H]4C[C@@H]4c4ccccc4)CC3)ncnc2s1`, the IC50 in [1] was 9.19 µM; in assay [2], 0.061 µM; in assay [4], over 100 µM; in [5], 9.63 µM; with MV4-11 [6] it was 5.97 µM.

For orientation: IC50 means the concentration at which inhibition is half-maximal. Low values mean higher potency, high ones lower potency.

The record behind these values is ChEMBL document CHEMBL4368922 (Bioorg Med Chem Lett, 2019).
